Measured values as given in patent publication US7435837B2, “Dihydrobenzofuranyl alkanamine derivatives and methods for using same” (Wyeth, priority 2003, dated 2008).

Target: T1, human 5-hydroxytryptamine-2C (h5-HT2C) receptor (Homo sapiens, UniProt P28335)
T1 construct: expressed in transfected cells; host or cells: CHO (Chinese Hamster Ovary) cells; membranes
T1 sequence (P28335 33-458): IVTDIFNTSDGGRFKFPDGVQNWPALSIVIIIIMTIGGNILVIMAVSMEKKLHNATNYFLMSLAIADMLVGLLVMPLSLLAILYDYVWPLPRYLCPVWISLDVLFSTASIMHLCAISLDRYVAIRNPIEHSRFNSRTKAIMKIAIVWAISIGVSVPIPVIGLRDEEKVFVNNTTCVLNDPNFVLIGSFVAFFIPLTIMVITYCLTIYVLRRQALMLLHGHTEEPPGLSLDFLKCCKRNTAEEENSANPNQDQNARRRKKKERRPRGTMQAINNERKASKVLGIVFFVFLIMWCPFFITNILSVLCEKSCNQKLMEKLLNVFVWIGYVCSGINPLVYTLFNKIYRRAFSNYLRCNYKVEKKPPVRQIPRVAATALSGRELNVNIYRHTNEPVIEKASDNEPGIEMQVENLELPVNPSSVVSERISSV
Assay: [125I]DOI binding to membranes of CHO cells expressing the human 5-HT2C receptor
Conditions: [125I]DOI radioligand, CHO cell membranes, room temperature 60 min; read-out: 5-HT2C Affinity Ki

SMILES | Ki
CNCC1Cc2cc(C(F)(F)F)cc(-c3cc(F)ccc3F)c2O1 (racemic) [Example 523, (±)-N-methyl-1-[7-(2,5-difluorophenyl)-5-(trifluoromethyl)-2,3-dihydro-1-benzofuran-2-yl]methanamine] | 61 nM
Cc1cccc(-c2cc(Cl)cc3c2OC(CN)C3)c1 (racemic) [Example 88, (±)-1-[5-chloro-7-(3-methylphenyl)-2,3-dihydro-1-benzofuran-2-yl]methanamine] | 48 nM
CNCC1Cc2cc(Cl)cc(-c3ccsc3)c2O1 (single isomer, unassigned; (-)) [Example 94, (−)-N-[(5-chloro-7-thien-3-yl-2,3-dihydro-1-benzofuran-2-yl)methyl]-N-methylamine] | 176 nM
NCC1Cc2ccc(Cl)c(-c3ccccc3Cl)c2O1 (racemic) [Example 400, (±)-{[6-chloro-7-(2-chlorophenyl)-2,3-dihydro-1-benzofuran-2-yl]methyl}amine] | 0.5 nM
NCC1Cc2cc(C(F)(F)F)cc(-c3ccc(F)c(Cl)c3)c2O1 (racemic) [Example 335, (±)-{[7-(3-chloro-4-fluorophenyl)-5-(trifluoromethyl)-2,3-dihydro-1-benzofuran-2-yl]methyl}amine] | 192 nM
NCC1Cc2cccc(Nc3cc(Cl)cc(Cl)c3)c2O1 (racemic) [Example 189, (±)-N-[2-(aminomethyl)-2,3-dihydro-1-benzofuran-7-yl]-N-(3,5-dichlorophenyl)amine] | 363 nM
CNCC1Cc2cc(-c3cccc(OC)c3)cc(F)c2O1 (racemic) [Example 537, (±)-{7-fluoro-5-[3-methoxyphenyl]-2,3-dihydro-1-benzofuran-2-yl}methyl)methylamine] | 1690 nM
CCCCc1ccc(-c2cc(C(F)(F)F)cc3c2OC(CN)C3)cc1 (racemic) [Example 339, (±)-{[7-(4-butylphenyl)-5-(trifluoromethyl)-2,3-dihydro-1-benzofuran-2-yl]methyl}amine] | 328 nM
N#Cc1ccc(-c2cc(C(F)(F)F)cc3c2OC(CN)C3)cc1 (racemic) [Example 340, (±)-4-[2-(aminomethyl)-5-(trifluoromethyl)-2,3-dihydro-1-benzofuran-7-yl]benzonitrile] | 88 nM
COc1ccccc1-c1cc(C(F)(F)F)cc2c1OC(CN)C2 (racemic) [Example 316, (±)-{[5-(trifluoromethyl)-7-(2-methoxyphenyl)-2,3-dihydro-1-benzofuran-2-yl]methyl}amine] | 64 nM
NCC1Cc2cccc(Nc3ccc(Cl)c(Cl)c3)c2O1 (racemic) [Example 179, (±)-N-[2-(aminomethyl)-2,3-dihydro-1-benzofuran-7-yl]-N-(3,4-dichlorophenyl)amine] | 435 nM
Cc1ccc(Nc2cccc3c2OC(CN)C3)cc1Cl (racemic) [Example 188, (±)-N-[2-(aminomethyl)-2,3-dihydro-1-benzofuran-7-yl]-N-(3-chloro-4-methylphenyl)amine] | 579 nM
CNCC1Cc2cc(-c3ccc(OC)cc3)cc(F)c2O1 (racemic) [Example 542, (±)-{7-fluoro-5-[4-methoxyphenyl]-2,3-dihydro-1-benzofuran-2-yl}methyl)methylamine] | 372 nM
NCC1Cc2cc(-c3ccccc3Cl)cc(F)c2O1 (racemic) [Example 376, (±)-{[7-fluoro-5-(2-chlorophenyl)-2,3-dihydro-1-benzofuran-2-yl]methyl}amine] | 88 nM
CNCC1Cc2cc(-c3ccccc3)cc(-c3ccccc3Cl)c2O1 (racemic) [Example 505, (±)-{[7-(2-chlorophenyl)-5-phenyl-2,3-dihydro-1-benzofuran-2-yl]methyl}methylamine] | 371 nM
NCC1Cc2cccc(-c3ccccc3F)c2O1 (single isomer, unassigned; (+)) [Example 51, (+)-1-[7-(2-fluorophenyl)-2,3-dihydro-1-benzofuran-2-yl]methanamine] | 1 nM
NCC1Cc2cccc(Cc3ccccc3)c2O1 (racemic) [Example 15, (±)-1-(7-benzyl-2,3-dihydro-1-benzofuran-2-yl)methanamine] | 222 nM
CNCC1Cc2cc(-c3ccccc3C(F)(F)F)cc(F)c2O1 (racemic) [Example 531, (±)-{7-fluoro-5-[2-(trifluoromethyl)phenyl]-2,3-dihydro-1-benzofuran-2-yl}methyl)methylamine] | 409 nM
CCc1cc2c(c(-c3ccccc3C)c1)OC(CN)C2 (racemic) [Example 305, (±)-{[5-ethyl-7-(2-methylphenyl)-2,3-dihydro-1-benzofuran-2-yl]methyl}amine] | 1.1 nM
Cc1cccc(-c2cc(C(F)(F)F)cc3c2OC(CN)C3)c1 (racemic) [Example 318, (±)-{[5-(trifluoromethyl)-7-(3-methylphenyl)-2,3-dihydro-1-benzofuran-2-yl]methyl}amine] | 98 nM

SMILES | Ki
COc1ccc(-c2cc(F)c3c(c2)CC(CN)O3)cc1 (racemic) [Example 389, (±)-{[7-fluoro-5-(4-methoxyphenyl)-2,3-dihydro-1-benzofuran-2-yl]methyl}amine] | 1620 nM
Cc1cc(Cl)ccc1-c1cc(F)cc2c1O[C@@H](CN)C2 [Example 549, {[(2R)-7-(4-chloro-2-methylphenyl)-5-fluoro-2,3-dihydro-1-benzofuran-2-yl]methyl}amine] | 3.1 nM
NCC1Cc2cc(C(F)(F)F)cc(-c3cccc(F)c3)c2O1 (racemic) [Example 319, (±)-{[5-(trifluoromethyl)-7-(3-fluorophenyl)-2,3-dihydro-1-benzofuran-2-yl]methyl}amine] | 83 nM
NCC1Cc2cc(C(F)(F)F)cc(-c3cccc(Cl)c3Cl)c2O1 (racemic) [Example 330, (±)-{[7-(2,3-dichlorophenyl)-5-(trifluoromethyl)-2,3-dihydro-1-benzofuran-2-yl]methyl}amine] | 88 nM
NCC1Cc2cccc(/C=C/c3ccccc3)c2O1 (racemic) [Example 119, (±)-1-{7-[(E)-2-phenylvinyl]-2,3-dihydro-1-benzofuran-2-yl}methanamine] | 78 nM
NCC1Cc2cc(C(F)(F)F)cc(-c3cccc(C(F)(F)F)c3)c2O1 (racemic) [Example 322, (±)-{[5-(trifluoromethyl)-7-(3-(trifluoromethyl)phenyl)-2,3-dihydro-1-benzofuran-2-yl]methyl}amine] | 427 nM
NCC1Cc2ccc(-c3ccccc3)cc2O1 (racemic) [Example 31, (±)-(6-phenyl-2,3-dihydro-1-benzofuran-2-yl)methanamine] | 1370 nM
COc1cccc(-c2cc(F)c3c(c2)CC(CN)O3)c1 (racemic) [Example 384, (±)-{[7-fluoro-5-(3-methoxyphenyl)-2,3-dihydro-1-benzofuran-2-yl]methyl}amine] | 1260 nM
Cc1cc2c(c(-c3c(Cl)cccc3Cl)c1)OC(CN)C2 (single isomer, unassigned; (+)) [Example 304, (+)-{[7-(2,6-dichlorophenyl)-5-methyl-2,3-dihydro-1-benzofuran-2-yl]methyl}amine] | 1.7 nM
NCC1Cc2cccc(-c3cc4ccccc4o3)c2O1 (racemic) [Example 40, (±)-1-(2′,3′-dihydro-2,7′-bi-1-benzofuran-2′-yl)methanamine] | 122 nM
COc1ccc(Nc2cccc3c2OC(CN)C3)cc1 (racemic) [Example 176, (±)-N-[2-(aminomethyl)-2,3-dihydro-1-benzofuran-7-yl]-N-(4-methoxyphenyl)amine] | 488 nM
CNCC1Cc2cc(OC)cc(-c3ccc(F)c(Cl)c3)c2O1 (racemic) [Example 503, (±)-{[7-(3-chloro-4-fluorophenyl)-5-methoxy-2,3-dihydro-1-benzofuran-2-yl]methyl}methylamine] | 78 nM
CNCC1Cc2cc(-c3ccc(Cl)cc3)cc(F)c2O1 (racemic) [Example 539, (±)-{7-fluoro-5-[4-chlorophenyl]-2,3-dihydro-1-benzofuran-2-yl}methyl)methylamine] | 209 nM
NCC1Cc2cc(C(F)(F)F)cc(-c3ccc(F)cc3)c2O1 (racemic) [Example 324, (±)-{[5-(trifluoromethyl)-7-(4-fluorophenyl)-2,3-dihydro-1-benzofuran-2-yl]methyl}amine] | 60 nM
CNCC1Cc2cc(-c3ccccc3F)cc(F)c2O1 (racemic) [Example 530, (±)-{[7-fluoro-5-(2-fluorophenyl)-2,3-dihydro-1-benzofuran-2-yl]methyl}methylamine] | 915 nM
Cc1cccc(-c2cc(F)c3c(c2)CC(CN)O3)c1 (racemic) [Example 380, (±)-{[7-fluoro-5-(3-methylphenyl)-2,3-dihydro-1-benzofuran-2-yl]methyl}amine] | 424 nM
NCC1Cc2cc(-c3ccccc3)cc(-c3ccc(F)cc3F)c2O1 (racemic) [Example 354, (±)-{[7-(2,4-difluorophenyl)-5-phenyl-2,3-dihydro-1-benzofuran-2-yl]methyl}amine] | 610 nM
NCC1Cc2cccc(-c3cccc(C(F)(F)F)c3)c2O1 (racemic) [Example 69, (±)-1-{7-[3-(trifluoromethyl)phenyl]-2,3-dihydro-1-benzofuran-2-yl}methanamine] | 96 nM
CNCC1Cc2cc(-c3ccccc3)cc(-c3ccccc3OC)c2O1 (racemic) [Example 514, (±)-{[7-(2-methoxyphenyl)-5-phenyl-2,3-dihydro-1-benzofuran-2-yl]methyl}methylamine] | 242 nM

Same assay, conditions: saturation binding with increasing concentrations of [125I] DOI; read-out: dissociation constant, KD

SMILES | Kd
COc1cc(CC(C)N)c(OC)cc1I (stereo not shown) [[^125I] DOI, reference compound] | 0.4 nM
